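Method: 48-hour compound exposure of cells in 96-well plates, five concentrations, linear interpolation of endpoints. Definition used: TGI = concentration required for complete inhibition of growth.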 *1 amine or outer side, *2 acyl side, *3 side chain or, on linkers, in order; H or OH if unused. Where a SMILES comes first, the peptide text is derived from it. Bridges are numbered along the chain shown (N, C = ends). [ ]: non-standard residue; d: D form. ξ: configuration not given here. X35 = CC[C@H](C)[C@@H](N[*:1])[C@@H](O)CC(=O)O[C@H](C(=O)[C@H](C)C(=O)[*:2])C(C)C; NMeY = CN[C@@H](Cc1ccc(O)cc1)C(=O)O; dNMeL = CN[C@H](CC(C)C)C(=O)O; ξΔPro = O=C(O)C1C=CCN1
How the values were obtained:
Assay in all cases: inhibition of tumour cell growth, NCI panel, 48 h
NCI-H522 lung = tested on: NCI-H522 lung
SF-268 CNS = tested on: SF-268 CNS
COLO 205 colon = tested on: COLO 205 colon
NCI/ADR-RES ovarian = tested on: NCI/ADR-RES ovarian
SK-MEL-5 melanoma = tested on: SK-MEL-5 melanoma
HOP-92 NSCLC = tested on: HOP-92 NSCLC
HOP-62 NSCLC = tested on: HOP-62 NSCLC
SR leukemia = tested on: SR leukemia
MDA-MB-435 = tested on: MDA-MB-435
786-0 renal = tested on: 786-0 renal

| Compound | TGI (NCI-H522 lung) [µM] | TGI (SF-268 CNS) [µM] | TGI (COLO 205 colon) [µM] | TGI (NCI/ADR-RES ovarian) [µM] | TGI (SK-MEL-5 melanoma) [µM] | TGI (HOP-92 NSCLC) [µM] | TGI (HOP-62 NSCLC) [µM] | TGI (SR leukemia) [µM] | TGI (MDA-MB-435) [µM] | TGI (786-0 renal) [µM] |
| --- | --- | --- | --- | --- | --- | --- | --- | --- | --- | --- |
| NC(=S)N/N=C1\CCCC1C(O)(C(F)(F)Cl)C(F)(F)Cl (stereo not given) | > 10 | > 10 | > 10 | > 10 | 7.44 | > 10 | > 10 | > 10 | > 10 | > 10 |
| COc1ccc(OC)c(C[P+](c2ccccc2)(c2ccccc2)c2ccccc2)c1 | > 39.4 | > 100 | 2.76 | > 100 | 3.32 | 4.39 | 22.2 | 6.07 | 13.7 | > 100 |
| CC1CN=C(c2ccc(-c3nc(-c4ccc(C5=NCC(C)N5)cc4)nc(N(C)C)n3)cc2)N1 (stereo not given) | 3.2 | 6.53 | 2.38 | 56.4 | 14 | 11.3 | 5.35 | 2.49 | 3.09 | 4.49 |
| CCn1c(=O)c2c3ccc(OC(C)=O)cc3[nH]c2c2ccc(OC(C)=O)cc21 | > 100 | > 100 | > 100 | > 100 | > 100 | > 100 | > 100 | > 100 | > 100 | > 100 |
| O=C(O)COc1cc(-c2ccccc2)nc2ccccc12 | > 100 | > 100 | > 100 | > 100 | > 100 | > 100 | > 100 | > 100 | 73.8 | > 100 |
| Nc1ccc2c(c1)NC(=O)[C@@H]1CCCN1C2=O | > 100 | > 100 | > 100 | > 100 | > 100 | > 100 | > 100 | > 100 | > 100 | > 100 |
| C=C(CCOC)CCC1CCCCC(=C)[C@H]1O (stereo not given in full) | > 100 | > 100 | > 100 | > 100 | > 100 | > 100 | > 100 | > 100 | > 100 | > 100 |
| O=C1c2ccccc2C(=O)c2nn(N=P(CP(=Nn3nc4c(n3)C(=O)c3ccccc3C4=O)(c3ccccc3)c3ccccc3)(c3ccccc3)c3ccccc3)nc21 | > 100 | > 100 | > 100 | > 100 | > 100 | > 100 | > 100 | > 100 | > 100 | > 100 |
| COc1cc2c(cc1O)CCN(C)[C@H]2Cc1ccc(Oc2c(O)c(OC)cc3c2C[C@H]2c4c(c(OC)c(OC)c(OC)c4-3)CCN2C)cc1 | 11.2 | 11.5 | 12.7 | 14.1 | 7.65 | 7.17 | 11.8 | 4.86 | 8.7 | 9.4 |
| NNC(=O)Cn1ccnn1 | > 100 | > 100 | > 100 | > 100 | > 100 | > 100 | > 100 | > 100 | > 100 | > 100 |
| CC1=NN2C(=N)/C(=C/c3ccccc3)C(=O)N=C2S1 | > 100 | > 100 | > 100 | > 51 | > 100 | > 100 | > 100 | > 100 | > 100 | > 100 |
| Cc1ccc(/C=N\NC(=O)c2ccncc2)s1 | > 100 | > 100 | > 100 | > 100 | > 100 | > 100 | > 100 | > 100 | > 100 | > 100 |
| CC(=O)Nc1ccc(/C=C2/NC(=S)N(/C=C3\C(=O)Oc4ccccc4C3=O)C2=O)cc1 | > 100 | > 100 | > 100 | > 100 | > 100 | > 100 | > 100 | > 100 | > 100 | > 100 |
| Clc1nc2c(C#Cc3ccccc3)ncnc2n1C1CCCCO1 (stereo not given) | 25.1 | 37.2 | 32.7 | > 100 | 24.8 | 34 | > 100 | 24.1 | 94.1 | 25.3 |
| CC1=CC[C@](C)(O)[C@@]2(C)CC[C@H]3C(=C(C)C)C(=O)C[C@]3(C)C[C@H]12 | 31.5 | > 50 | > 50 | > 50 | > 50 | > 50 | > 50 | 40.6 | > 50 | > 50 |
| CC[C@H](C)[C@H]1NC(=O)[C@@H](NC(=O)[C@@H](CC(C)C)N(C)C(=O)C2C=CCN2)[C@@H](C)OC(=O)[C@H](Cc2ccc(OC)cc2)N(C)C(=O)[C@@H]2CCCN2C(=O)[C@H](CC(C)C)NC(=O)[C@@H](C)C(=O)[C@H](C(C)C)OC(=O)C[C@@H]1O (stereo not given in full) (H-[ξΔPro][dNMeL]T[X35]LP[NMeY](Me); ester 3-C) | < 0.005 | 0.00802 | 9.32 | 0.52 | 0.0756 | 0.171 | 0.0363 | 2.54 | 0.0687 | 0.0597 |
| COc1ccc(C2SCC(=O)N2NC(=O)C(C)Oc2ccc(Cl)cc2Cl)cc1 (stereo not given) | > 100 | > 100 | > 100 | > 100 | > 100 | 63.6 | 48.2 | 17.3 | > 100 | 41.7 |
| CNC(=O)N(CCC#N)CCCN(C(=O)N(C)C)c1ccccc1 | > 100 | > 100 | > 100 | > 100 | > 100 | > 100 | > 100 | > 100 | > 100 | > 100 |
| O=C1/C(=C/c2ccc(O)cc2)CCC1CNc1ccccc1 (stereo not given) | 6.95 | 28.2 | 16.1 | 37.1 | 30.6 | 27.9 | 36.3 | 4.22 | 36.2 | 18.9 |
| Cn1c2ccc(C3=NCCN3)cc2c2cc(C3=NCCN3)ccc21 | > 100 | > 100 | > 100 | > 100 | > 100 | 63.7 | > 100 | > 100 | > 100 | > 100 |
| O=P(O)(O)C=C=C1CCCCC1 | > 100 | > 100 | > 100 | > 100 | > 100 | > 100 | > 100 | > 100 | > 100 | > 100 |
| O=C(O)CCSC1=NCCN1 | > 100 | > 100 | > 100 | > 100 | > 100 | > 100 | > 100 | > 100 | > 100 | > 100 |
| O=[N+]([O-])c1cc(F)ccc1Sc1ccccc1 | > 10 | > 10 | > 10 | > 10 | > 10 | > 10 | > 10 | > 10 | > 10 | > 10 |
| CC(C)(CN1CCCCC1)C(/C=C/c1ccccc1)=N\NC(=O)N/N=C(/C=C/c1ccccc1)C(C)(C)CN1CCCCC1 | 3.35 | 8.94 | 2.81 | 4.01 | 3.1 | 3.76 | 3.71 | 2.08 | 2.86 | 2.78 |
| C[C@]12CC[C@H]3[C@@H](CCC4=C(Br)C(=O)C=C[C@@]43O)[C@@H]1CCC2=O | 38.1 | > 100 | > 100 | > 100 | > 100 | 75.9 | > 100 | 58.8 | > 100 | 81.2 |
| O=C1C(Cl)=C(c2ccc([N+](=O)[O-])cc2)C(=O)c2c(O)cccc21 | 0.545 | 22.4 | 3.66 | 17.1 | 3.46 | 3.15 | 14.8 | > 100 | 4.8 | 8.82 |

From PubChem BioAssay (NCI)
